Laboratory results taken from patent US9023789B2, “Amylin analogs and pharmaceutical compositions thereof” (Novo Nordisk A/S, priority 2012, dated 2015).
pEC50, pIC50: −log10 of the molar value. Numbered stars: 1 amine (or outer) side, 2 acyl side, 3 side chain; on linkers, the order of the positions; unused ones are H or OH. Bridge positions count the residues as written; N and C are the ends. Side chains are listed from the residue outwards. Peptide text beside a SMILES is read from it. * marks the point of attachment. C20 diacid = O=C(O)CCCCCCCCCCCCCCCCCCC(=O)*; γGlu = O=C(O)[C@H](CCC(=O)[*:2])N[*:1]; AEEA = NCCOCCOCC(=O)O

Legend:
[1] = molecular target: T1, human calcitonin receptor (Homo sapiens, UniProt P30988); experiment: ASSAY (VII) binding to the human calcitonin receptor (SPA, 125I-Calcitonin); details: read-out: hCTR bind IC50;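 also: cell membranes (35 ng/µL) combined with SPA beads in 40 µL of pH 7.4 Hepes buffer, 384-well format, signal counted on a TopCounter instrument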
T1 construct: expressed in transfected cells
T1 sequence (P30988 25-474): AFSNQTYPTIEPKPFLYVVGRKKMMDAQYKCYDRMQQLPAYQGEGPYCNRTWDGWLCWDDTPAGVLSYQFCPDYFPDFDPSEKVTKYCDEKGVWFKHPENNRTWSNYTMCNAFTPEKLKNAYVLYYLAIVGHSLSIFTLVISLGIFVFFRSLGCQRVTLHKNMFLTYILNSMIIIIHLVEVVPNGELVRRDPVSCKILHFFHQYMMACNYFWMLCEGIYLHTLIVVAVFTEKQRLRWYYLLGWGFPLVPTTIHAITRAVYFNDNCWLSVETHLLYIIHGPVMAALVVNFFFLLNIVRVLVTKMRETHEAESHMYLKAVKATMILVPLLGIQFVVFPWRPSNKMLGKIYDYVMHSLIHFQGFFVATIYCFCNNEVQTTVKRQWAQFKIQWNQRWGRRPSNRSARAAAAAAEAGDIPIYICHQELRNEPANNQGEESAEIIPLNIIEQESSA

[2] = molecular target: T2, human amylin receptor (membranes from Amylin 3(a)/CRE-luc cells) (Homo sapiens, UniProt O60896+P30988); experiment: ASSAY (V) binding to the human amylin receptor (SPA, 125I-rat amylin); details: for pIC50: Table 4, read-out: hAmylin-R bind IC50;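 as to all read-outs here: competition binding of cell membranes (35 ng/µL) mixed with SPA beads in 384-well plates at 40 µL total volume, read by scintillation counting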
T2 construct: expressed in transfected cells
T2 sequence (P30988 25-474): T1 sequence (P30988 25-474)
T2 sequence (O60896 24-148 partner): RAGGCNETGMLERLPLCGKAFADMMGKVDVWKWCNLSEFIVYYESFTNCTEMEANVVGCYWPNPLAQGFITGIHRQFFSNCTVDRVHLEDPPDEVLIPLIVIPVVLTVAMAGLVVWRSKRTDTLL

[3] = molecular target: T3, human calcitonin (a) receptor in BHK570 cells (Homo sapiens, UniProt P30988); experiment: ASSAY (II)a functional assay, human calcitonin receptor (CRE luciferase); assay type: cell-based; details: read-out: hCTR funct. EC50
T3 construct: expressed in transfected cells
T3 sequence (P30988 25-474): T1 sequence (P30988 25-474)
Summary of the method: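 BHK cells stably carrying a CRE-luciferase reporter plus calcitonin receptor, or calcitonin receptor with RAMP-3 for the amylin 3(a) receptor, were seeded and kept overnight at 37° C. Compounds were added in assay medium with 10% FBS and 10 mM Hepes, pH 7.4, for 3 hours at 37° C, then luminescence was counted.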

[4] = ASSAY (III) ThT fibrillation assay for physical stability; assay type: physicochemical
Summary of the method: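 Formulations with 1 μM ThT, pH adjusted as required, incubated at 37 °C with 960 rpm orbital shaking; fluorescence (ex 444/em 485 nm) read every 20 min. Fibrillation reported as mean ThT fluorescence ± SD of 4–8 replicates at time points; polypeptide concentration measured by reverse-phase HPLC before and after, post-centrifugation.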

[5] = Table 5, selectivity, hCTR bind IC50 / hAmylin-R bind IC50
[6] = Table 5a, selectivity, hCTR bind IC50 / hAmylin-R bind IC50
[7] = Table 5b, selectivity, hCTR bind IC50 / hAmylin-R bind IC50
[8] = Table 5c, selectivity, hCTR bind IC50 / hAmylin-R bind IC50
[9] = Table 7, human binding selectivity, included for comparison
[10] = Table 7a (preferred compounds), human binding selectivity, included for comparison
[11] = ratio of human calcitonin receptor binding IC50 to human amylin receptor binding IC50

pIC50 [1] | pIC50 [2] | Ratio hCT/hAmylin binding [2, 5] | Ratio hCT/hAmylin binding [2, 6] | Ratio hCT/hAmylin binding [2, 7] | Ratio hCT/hAmylin binding [2, 8] | Ratio hCT/hAmylin binding [2, 9] | Ratio hCT/hAmylin binding [2, 10] | Ratio hCT/hAmylin binding [2, 11] | pEC50 [3] | ThT pH 4.0 lag time (h) [4] | SMILES
7.05 | 9.20 | 139.6 | 139.6 | 139.6 | 139.6 | 139.6 | 139.6 | 139.6 | 7.90 | 12 h | CC[C@H](C)[C@H](NC(=O)[C@H](C)NC(=O)CNC(=O)[C@H](Cc1ccccc1)NC(=O)[C@H](CC(N)=O)NC(=O)[C@@H]1CCCN1C(=O)[C@H](CO)NC(=O)[C@H](CO)NC(=O)[C@H](Cc1c[nH]cn1)NC(=O)[C@H](CCCNC(=N)N)NC(=O)[C@H](CC(C)C)NC(=O)[C@H](Cc1ccccc1)NC(=O)[C@H](CCCNC(=N)N)NC(=O)[C@H](C)NC(=O)[C@H](CC(C)C)NC(=O)[C@H](CCCNC(=N)N)NC(=O)[C@H](CCC(N)=O)NC(=O)[C@@H](NC(=O)[C@H](C)NC(=O)[C@@H]1CSSC[C@H](NC(=O)[C@@H](N)CCCCNC(=O)COCCOCCNC(=O)CC[C@H](NC(=O)CCCCCCCCCCCCCCCCCCC(=O)O)C(=O)O)C(=O)N[C@@H](CC(N)=O)C(=O)N[C@@H]([C@@H](C)O)C(=O)N[C@@H](C)C(=O)N[C@@H]([C@@H](C)O)C(=O)N1)[C@@H](C)O)C(=O)N1CCC[C@H]1C(=O)N[C@@H](CO)C(=O)N[C@@H](CO)C(=O)N[C@H](C(=O)N[C@@H](CC(N)=O)C(=O)N[C@H](C(=O)NCC(=O)N[C@@H](CO)C(=O)N[C@@H](CC(N)=O)C(=O)N[C@H](C(=O)N[C@@H](Cc1ccc(O)cc1)C(N)=O)[C@@H](C)O)C(C)C)[C@@H](C)O [Example 82] (H-K([AEEA-γGlu-C20 diacid])CNTATCATQRLARFLRHSSPNFGAIPSSTNVGSNTY-NH2; disulfide 2-7; N-terminus assumed)
8.06 | 9.88 | 65.3 | 65.3 | 65.3 | 65.3 | 65.3 | 65.3 | 65.3 | 8.90 | 22 h | CC[C@H](C)[C@H](NC(=O)[C@H](C)NC(=O)CNC(=O)[C@H](Cc1ccccc1)NC(=O)[C@H](CC(N)=O)NC(=O)[C@@H]1CCCN1C(=O)[C@H](CO)NC(=O)[C@H](CO)NC(=O)[C@H](Cc1c[nH]cn1)NC(=O)[C@H](CCCNC(=N)N)NC(=O)[C@H](CC(C)C)NC(=O)[C@H](Cc1ccccc1)NC(=O)[C@H](Cc1c[nH]cn1)NC(=O)[C@H](C)NC(=O)[C@H](CC(C)C)NC(=O)[C@H](CCCNC(=N)N)NC(=O)[C@H](CCC(N)=O)NC(=O)[C@@H](NC(=O)[C@H](C)NC(=O)[C@@H]1CSSC[C@H](NC(=O)[C@@H](N)CCCCNC(=O)COCCOCCNC(=O)CC[C@H](NC(=O)CCCCCCCCCCCCCCCCCCC(=O)O)C(=O)O)C(=O)N[C@@H](CC(N)=O)C(=O)N[C@@H]([C@@H](C)O)C(=O)N[C@@H](C)C(=O)N[C@@H]([C@@H](C)O)C(=O)N1)[C@@H](C)O)C(=O)N1CCC[C@H]1C(=O)N[C@@H](CO)C(=O)N[C@@H](CO)C(=O)N[C@H](C(=O)N[C@@H](CC(N)=O)C(=O)N[C@H](C(=O)NCC(=O)N[C@@H](CO)C(=O)N[C@@H](CC(N)=O)C(=O)N[C@H](C(=O)N[C@@H](Cc1ccc(O)cc1)C(N)=O)[C@@H](C)O)C(C)C)[C@@H](C)O [Example 69] (H-K([AEEA-γGlu-C20 diacid])CNTATCATQRLAHFLRHSSPNFGAIPSSTNVGSNTY-NH2; disulfide 2-7; N-terminus assumed)
8.58 | 10.12 | 34.7 | 34.7 | 34.7 | 34.7 | 34.7 | 34.7 | 34.7 | 9.04 | 4 h | CC[C@H](C)[C@H](NC(=O)[C@H](C)NC(=O)CNC(=O)[C@H](Cc1ccccc1)NC(=O)[C@H](CC(N)=O)NC(=O)[C@@H]1CCCN1C(=O)[C@H](CO)NC(=O)[C@H](CO)NC(=O)[C@H](Cc1c[nH]cn1)NC(=O)[C@H](CCCNC(=N)N)NC(=O)[C@H](CC(C)C)NC(=O)[C@H](Cc1ccccc1)NC(=O)[C@H](CC(N)=O)NC(=O)[C@H](C)NC(=O)[C@H](CC(C)C)NC(=O)[C@H](CCCNC(=N)N)NC(=O)[C@H](CCC(N)=O)NC(=O)[C@@H](NC(=O)[C@H](C)NC(=O)[C@@H]1CSSC[C@H](NC(=O)[C@@H](N)CCCCNC(=O)COCCOCCNC(=O)CCCCCCCCCCCCCCCCCCC(=O)O)C(=O)N[C@@H](CC(N)=O)C(=O)N[C@@H]([C@@H](C)O)C(=O)N[C@@H](C)C(=O)N[C@@H]([C@@H](C)O)C(=O)N1)[C@@H](C)O)C(=O)N1CCC[C@H]1C(=O)N[C@@H](CO)C(=O)N[C@@H](CO)C(=O)N[C@H](C(=O)N[C@@H](CC(N)=O)C(=O)N[C@H](C(=O)NCC(=O)N[C@@H](CO)C(=O)N[C@@H](CC(N)=O)C(=O)N[C@H](C(=O)N[C@@H](Cc1ccc(O)cc1)C(N)=O)[C@@H](C)O)C(C)C)[C@@H](C)O [Example 43]

SMILES | pIC50 [1] | pIC50 [2] | Ratio hCT/hAmylin binding [2, 5] | Ratio hCT/hAmylin binding [2, 6] | Ratio hCT/hAmylin binding [2, 7] | Ratio hCT/hAmylin binding [2, 8] | Ratio hCT/hAmylin binding [2, 9] | Ratio hCT/hAmylin binding [2, 10] | Ratio hCT/hAmylin binding [2, 11] | pEC50 [3] | ThT pH 4.0 lag time (h) [4]
CC[C@H](C)[C@H](NC(=O)[C@H](C)NC(=O)CNC(=O)[C@H](Cc1ccccc1)NC(=O)[C@H](CC(N)=O)NC(=O)[C@@H]1CCCN1C(=O)[C@H](CO)NC(=O)[C@H](CO)NC(=O)[C@H](Cc1c[nH]cn1)NC(=O)[C@H](CCCNC(=N)N)NC(=O)[C@H](CC(C)C)NC(=O)[C@H](Cc1ccccc1)NC(=O)[C@H](Cc1c[nH]cn1)NC(=O)[C@H](C)NC(=O)[C@H](CC(C)C)NC(=O)[C@H](CCCNC(=N)N)NC(=O)[C@H](CCC(N)=O)NC(=O)[C@@H](NC(=O)[C@H](C)NC(=O)[C@@H]1CSSC[C@H](NC(=O)[C@@H](N)CCCCNC(=O)CC[C@H](NC(=O)CCCCCCCCCCCCCCCCCCC(=O)O)C(=O)O)C(=O)N[C@@H](CC(N)=O)C(=O)N[C@@H]([C@@H](C)O)C(=O)N[C@@H](C)C(=O)N[C@@H]([C@@H](C)O)C(=O)N1)[C@@H](C)O)C(=O)N1CCC[C@H]1C(=O)N[C@@H](CO)C(=O)N[C@@H](CO)C(=O)N[C@H](C(=O)N[C@@H](CC(N)=O)C(=O)N[C@H](C(=O)NCC(=O)N[C@@H](CO)C(=O)N[C@@H](CC(N)=O)C(=O)N[C@H](C(=O)N[C@@H](Cc1ccc(O)cc1)C(N)=O)[C@@H](C)O)C(C)C)[C@@H](C)O [Example 70] (H-K([γGlu-C20 diacid])CNTATCATQRLAHFLRHSSPNFGAIPSSTNVGSNTY-NH2; disulfide 2-7; N-terminus assumed) | 7.99 | 9.77 | 60.8 | 60.8 | 60.8 | 60.8 | 60.8 | 60.8 | 60.8 | 9.15 | 7 h
